From article PMC11528044 (Nature Communications, 2024)

Key:
[1] = system: intracellular L. major and L. amazonensis; settings: cited from earlier work
L. donovani CYP51 = L. donovani CYP51 (Leishmania donovani, UniProt A0A3S7WRS7); experiment: UV-Vis difference binding spectra of ligands with purified recombinant CYP51
[2] = system: sterol profile of LV82 promastigotes; experiment: LC-MS/MS sterol analysis of inhibitor-treated LV82 promastigotes; format: cell-based, Leishmania donovani; settings: 20 μM clotrimazole vs. DMSO, 24 hr
LdCYP5122A1 [3] = molecular target: T1, LdCYP5122A1 (Leishmania donovani, UniProt A0A3S7X0B6); experiment: biochemical
T1 sequence (A0A3S7X0B6 61-592): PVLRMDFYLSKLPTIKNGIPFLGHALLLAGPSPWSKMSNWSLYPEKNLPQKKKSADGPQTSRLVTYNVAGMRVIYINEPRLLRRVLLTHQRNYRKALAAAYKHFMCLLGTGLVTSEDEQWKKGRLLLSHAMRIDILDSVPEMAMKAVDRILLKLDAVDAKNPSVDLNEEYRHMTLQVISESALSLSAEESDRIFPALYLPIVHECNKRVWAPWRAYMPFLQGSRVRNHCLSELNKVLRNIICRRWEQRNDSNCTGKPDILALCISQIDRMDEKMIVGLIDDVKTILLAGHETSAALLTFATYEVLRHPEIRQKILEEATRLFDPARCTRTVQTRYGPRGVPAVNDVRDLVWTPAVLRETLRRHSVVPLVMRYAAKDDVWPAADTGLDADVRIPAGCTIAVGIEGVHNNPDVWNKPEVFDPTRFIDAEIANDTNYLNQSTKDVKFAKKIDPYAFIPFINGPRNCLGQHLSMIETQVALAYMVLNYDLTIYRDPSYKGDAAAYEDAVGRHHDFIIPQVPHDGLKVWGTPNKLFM

LdCYP51 [4] = molecular target: T2, LdCYP51 (Leishmania donovani, UniProt A0A3S7WRS7); experiment: biochemical
[5] = system: L. donovani strain 1S2D promastigotes (Ld1S WT and CYP5122A1 mutants); settings: promastigote growth, 48 hours
L. donovani CYP5122A1 = molecular target: T3, L. donovani CYP5122A1 (Leishmania donovani, UniProt A0A3S7X0B6); experiment: UV-Vis difference binding spectra of ligands with purified recombinant CYP5122A1
T3 sequence (A0A3S7X0B6 61-592): T1 sequence (A0A3S7X0B6 61-592)

[6] = system: L. donovani LV82 promastigote cultures; experiment: Microscopic counts of LV82 promastigote cultures; format: cell-based, Leishmania donovani; settings: LV82 promastigotes, cell counts daily for three days
[7] = system: L. donovani LV82 promastigotes; experiment: microbe, parasite or virus in culture; settings: Leishmania donovani, 72 h, read-out: EC50 (L. donovani)
LdCYP5122A1 [8] = molecular target: T1, LdCYP5122A1
CYP5122A1 = settings: 50 μM substrate, TbCPR, NADPH, pH 6.2, 37 °C
CYP51 = settings: 50 μM substrate, TbCPR, NADPH, pH 6.2, 37 °C
[9] = system: multiple strains of L. donovani and L. infantum promastigotes; settings: 1 μg/mL; cited from earlier work
LdCYP51 [10] = molecular target: T2, LdCYP51; settings: 100 μM

Sequence of L. donovani CYP51 (A0A3S7WRS7 32-480): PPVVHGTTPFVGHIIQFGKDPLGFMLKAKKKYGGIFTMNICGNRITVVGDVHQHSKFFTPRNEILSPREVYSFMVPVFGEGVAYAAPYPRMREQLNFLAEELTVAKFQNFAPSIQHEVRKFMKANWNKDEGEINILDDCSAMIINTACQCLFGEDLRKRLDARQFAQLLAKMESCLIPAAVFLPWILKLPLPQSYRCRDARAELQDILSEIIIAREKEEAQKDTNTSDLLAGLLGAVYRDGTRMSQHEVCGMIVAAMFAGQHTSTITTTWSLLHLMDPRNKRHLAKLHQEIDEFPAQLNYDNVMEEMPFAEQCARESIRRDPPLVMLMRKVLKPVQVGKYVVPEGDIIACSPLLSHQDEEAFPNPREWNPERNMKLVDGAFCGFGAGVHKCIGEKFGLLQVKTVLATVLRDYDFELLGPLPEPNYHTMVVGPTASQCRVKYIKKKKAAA
T2 sequence (A0A3S7WRS7 32-480): as above

Row | SMILES | Binding mode with CYP51 (difference binding spectrum) (L. donovani CYP51) | IC50 (LdCYP5122A1 [3]) [nM] | IC50 (LdCYP51 [4]) [nM] | Binding mode with CYP5122A1 (difference binding spectrum) (L. donovani CYP5122A1) | EC50 [7] [µM] | SI (selectivity index) = IC50 against LdCYP5122A1/IC50 against LdCYP51 (LdCYP5122A1 [8]) | further results
1 | Clc1ccccc1C(c1ccccc1)(c1ccccc1)n1ccnc1 [Clotrimazole] | type II binding | 260 ± 80 | 68 ± 4 | type II binding |  |  | Growth inhibition of intracellular L. major and L. amazonensis [1]: strongly inhibited the growth; 4,14-Dimethylzymosterol level normalized to DMSO-treated parasites [2]: 43 ± 18; 4CH2OH-LS level normalized to DMSO-treated parasites [2]: 2.3 ± 0.5; 5-Dehydroepisterol level normalized to DMSO-treated parasites [2]: 0.20 ± 0.04; 7-Dehydrodesmosterol level normalized to DMSO-treated parasites [2]: 0^d,**; 14-Methylfecosterol level normalized to DMSO-treated parasites [2]: Accumulated^a,***; 14-Methylzymosterol level normalized to DMSO-treated parasites [2]: 2.3 ± 0.4; Cholesterol (exogenous) level normalized to DMSO-treated parasites [2]: 1.1 ± 0.2; Ergosta-5,7-dienol level normalized to DMSO-treated parasites [2]: 0.79 ± 0.26; Ergostatetraenol level normalized to DMSO-treated parasites [2]: 0 ^d,**; Ergosterol level normalized to DMSO-treated parasites [2]: 0.26 ± 0.07; FF-MAS level normalized to DMSO-treated parasites [2]: Not detected; Lanosterol level normalized to DMSO-treated parasites [2]: 2.7 ± 0.9; T-MAS level normalized to DMSO-treated parasites [2]: Not detected; Zymosterol level normalized to DMSO-treated parasites ([2]; not separated from cholesta-7,24-dienol): 0.018 ± 0.006; 4-Methylzymosterol level normalized to DMSO-treated parasites ([2]; not separated from episterol and fecosterol): 0.025 ± 0.013; Cholesta-7,24-dienol level normalized to DMSO-treated parasites ([2]; not separated from zymosterol): 0.018 ± 0.006; Sensitivity of CYP5122A1 mutants compared with Ld1S WT [5]: no significant differences
2 | Clc1ccc(CCC(Cn2ccnc2)Sc2c(Cl)cccc2Cl)cc1 (stereo not shown) [Butoconazole] |  | 320 ± 70 | 73 ± 8 |  | 1.9 ± 0.4 | 4.4 | Leishmanicidal vs. leishmanistatic effect ([6]; listed as butaconazole): leishmanistatic effect
3 | c1ccc(-c2ccc(C(c3ccccc3)n3ccnc3)cc2)cc1 (stereo not shown) [Bifonazole] |  | 330 ± 70 | 57 ± 8 |  | 12 ± 1 | 5.7 | 
4 | CC(C)=CCC[C@@H](C)[C@H]1CC[C@@]2(C)C3=C(CC[C@]12C)[C@@]1(C)CC[C@H](O)[C@@H](C)[C@@H]1CC3 [4,14-DMZ, 4α,14α-Dimethylzymosterol] | typical type I binding |  |  | type I binding |  |  | Oxidation by reconstituted CYP5122A1 (CYP5122A1): metabolized by this enzyme; Oxidation by reconstituted CYP51 (CYP51): C14-demethylation
5 | OC(Cn1cncn1)(Cn1cncn1)c1ccc(F)cc1F [Fluconazole] | type II binding | > 100000 |  | no specific responses |  |  | Inhibition of intracellular parasites ([1]; 10 μM): < 50%; Growth compared with control [9]: > 80%; inhibition at 100 µM (LdCYP5122A1 [3]; read-out: % inhibition of CYP5122A1 at 100 μM): < 20%
6 | CCC(C)n1ncn(-c2ccc(N3CCN(c4ccc(OCC5COC(Cn6cncn6)(c6ccc(Cl)cc6Cl)O5)cc4)CC3)cc2)c1=O (stereo not shown) [Itraconazole] |  | 2100 ± 400 | 49 ± 9 |  | 6 ± 1.1 | 43 | Growth compared with control [9]: < 20%
7 | C[C@@H]1[C@H](O)[C@@H](C)/C=C/C=C/C=C/C=C/C=C/C=C/C=C/[C@H](O[C@@H]2O[C@H](C)[C@@H](O)[C@H](N)[C@@H]2O)C[C@@H]2O[C@](O)(C[C@@H](O)C[C@@H](O)[C@H](O)CC[C@@H](O)C[C@@H](O)CC(=O)O[C@H]1C)C[C@H](O)[C@H]2C(=O)O [Amphotericin B] |  |  |  |  | 0.14 ± 0.01 |  | Leishmanicidal vs. leishmanistatic effect [6]: leishmanicidal effect; inhibition at 10 µM (LdCYP5122A1 [3]; read-out: % inhibition of LdCYP5122A1 at 10 μM): < 25%; inhibition at 10 µM (LdCYP51 [4]; read-out: % inhibition of LdCYP51 at 10 μM): < 25%
8 | Clc1ccc(COC(Cn2ccnc2)c2ccc(Cl)cc2Cl)cc1 (stereo not shown) [Econazole] |  | 470 ± 130 | 46 ± 4 |  |  |  | 
9 | Clc1ccc(COC(Cn2ccnc2)c2ccc(Cl)cc2Cl)c(Cl)c1 (stereo not shown) [Miconazole] |  | 1100 ± 200 | 57 ± 3 |  |  |  | Growth inhibition of intracellular L. major and L. amazonensis [1]: strongly inhibited the growth
10 | CC(C)=CCC[C@@H](C)[C@H]1CC[C@H]2C3=CC=C4C[C@@H](O)CC[C@]4(C)[C@H]3CC[C@]12C [7-Dehydrodesmosterol] | atypical difference binding spectrum |  |  | did not induce any appreciable change |  |  | Oxidation by reconstituted CYP5122A1 (CYP5122A1): No oxidation metabolite formation; Oxidation by reconstituted CYP51 (CYP51): oxidized by CYP51 to form hydroxylated metabolites

Now from value to compound, other results behind:

Row | Binding mode with CYP51 (difference binding spectrum) (L. donovani CYP51) | IC50 (LdCYP5122A1 [3]) [nM] | IC50 (LdCYP51 [4]) [nM] | Binding mode with CYP5122A1 (difference binding spectrum) (L. donovani CYP5122A1) | EC50 [7] [µM] | SI (selectivity index) = IC50 against LdCYP5122A1/IC50 against LdCYP51 (LdCYP5122A1 [8]) | SMILES | further results
11 | did not elicit any change |  |  | type I binding |  |  | CC(C)=CCC[C@@H](C)[C@H]1CC[C@H]2C3=C(CC[C@]12C)[C@@]1(C)CC[C@H](O)C(C)(C)C1CC3 (stereo partly drawn) [T-MAS, 4,4-dimethylcholesta-8,24-dien-3β-ol] | Oxidation by reconstituted CYP5122A1 (CYP5122A1): metabolized by this enzyme; Oxidation by reconstituted CYP51 (CYP51): no oxidation metabolites were detected
12 |  | 2600 ± 700 | 43 ± 7 |  | 12 | 60 | C[C@@H](c1nc(-c2ccc(C#N)cc2)cs1)[C@](O)(Cn1cncn1)c1cc(F)ccc1F [Isavuconazole] | 
13 | atypical difference binding spectrum |  |  | did not induce any appreciable change |  |  | CC(C)=CCC[C@@H](C)[C@H]1CC[C@H]2C3=C(CC[C@]12C)[C@@]1(C)CC[C@H](O)C[C@@H]1CC3 [Zymosterol, 5α-Cholesta-8,24-dien-3β-ol] | Oxidation by reconstituted CYP5122A1 (CYP5122A1): No oxidation metabolite formation; Oxidation by reconstituted CYP51 (CYP51): oxidized by CYP51 to form hydroxylated metabolites
14 | typical type I binding |  |  | type I binding |  |  | CC(C)=CCC[C@@H](C)[C@H]1CC[C@@]2(C)C3=C(CC[C@]12C)[C@@]1(C)CC[C@H](O)C(C)(C)[C@@H]1CC3 [Lanosterol] | Oxidation by reconstituted CYP5122A1 (CYP5122A1): metabolized by this enzyme; Oxidation by reconstituted CYP51 (CYP51): C14-demethylation
15 |  |  |  |  | 6.2 ± 0.5 |  | Clc1ccc(C(Cn2ccnc2)OCc2c(Cl)cccc2Cl)c(Cl)c1 (stereo not shown) [Isoconazole] | 
16 |  | 6200 ± 1700 | 68 ± 2 |  | 15 ± 1 | 92 | C=C1CCN([C@H](C)[C@](O)(Cn2cncn2)c2ccc(F)cc2F)CC1 [Efinaconazole] | 
17 | did not elicit any change |  |  | type I binding |  |  | CC(C)=CCC[C@@H](C)[C@H]1CC=C2C3=C(CC[C@@]21C)[C@@]1(C)CC[C@H](O)C(C)(C)[C@@H]1CC3 [FF-MAS, 14-demethyl-14-dehydrolanosterol] | Oxidation by reconstituted CYP5122A1 (CYP5122A1): metabolized by this enzyme; Oxidation by reconstituted CYP51 (CYP51): no oxidation metabolites were detected
18 |  | 12000 ± 4000 | 49 ± 8 |  | 12 ± 2 | 248 | C[C@@H](c1nc(-c2ccc(C#N)cc2)cs1)[C@](O)(Cn1cncn1)c1ccc(F)cc1F [Ravuconazole] | 
19 |  |  |  |  | 14 ± 1 |  | N=C(N)c1ccc(OCCCCCOc2ccc(C(=N)N)cc2)cc1 [Pentamidine] | Inhibition of LdCYP51 at 100 μM (LdCYP51 [10]): No inhibition at 100 μM; Inhibition of LdCYP5122A1 at 100 μM (LdCYP5122A1 [8]; 100 μM): No inhibition at 100 μM
20 |  | 12000 ± 3000 | 83 ± 9 |  | 13 ± 1 | 140 | CC(C)N1CCN(c2ccc(OCC3COC(Cn4cncn4)(c4ccc(Cl)cc4Cl)O3)cc2)CC1 (stereo not shown) [Terconazole] | 
21 |  | 1100 ± 200 | 64 ± 7 |  | 7.1 ± 0.5 | 17 | Clc1ccc(C(Cn2ccnc2)OCc2csc3c(Cl)cccc23)c(Cl)c1 (stereo not shown) [Sertaconazole] | 
22 |  | 420 ± 50 |  |  | 22 ± 6 | 8.7 | CC(=O)N1CCN(c2ccc(OCC3COC(Cn4ccnc4)(c4ccc(Cl)cc4Cl)O3)cc2)CC1 (stereo not shown) [Ketoconazole] | Growth compared with control [9]: < 20%
